Laboratory results: patent US20080254023A1, “Treating Gliosis, Glial Scarring, Inflammation or Inhibition of Axonal Growth in the Nervous System by Modulating Eph Receptor” (THE UNIVERSITY OF QUEENSLAND, priority 2004, published 2008)

Key:
Type in all cases: cell-based, mice
Rho = Rho activation in cultured astrocytes (Rhotekin RBD assay)
Experimental: (§1) For biochemical analysis of astrocytes, factors as indicated were added to 80% confluent monolayers in 10 cm plates (Falcon, USA) for the times indicated. EphrinA5-Fc (available from the inventors) was pre-complexed as above.
(§2) Cells were lysed and a sample kept aside for analysis of total protein levels. The remainder of the lysate was used for immunoprecipitation in EphA4 or Rho activation assays. EphA4 activation was determined by immunoprecipitation of phosphorylated proteins using anti-phosphotyrosine (Cell Signaling), followed by Western transfer and detection of activated or total EphA4 using a rabbit anti-EphA4 antibody (kindly provided by Dr. D. Wilkinson, National Institute for Medical Research, London). Rho activation assays were performed using the Rhotekin RBD assay, according to the manufacturer's instructions (Upstate, USA). Total EphA4 and β-actin expression levels were determined in non-lesioned and 7 d post-lesioned spinal cords by Western analysis using rabbit anti-EphA4 antibody as above and mouse anti-β-actin antibody (Sigma). Densitometry was performed on the autoradiographs using NIH Image software to determine relative levels of the EphA4 bands and normalized to β-actin levels.

astrocytes = assay: In vitro astrocyte proliferation assay (MTT); settings: up to 72 hrs, LIF 1000 U/ml, IFN-γ 100 U/ml; for proliferation of WT astrocytes: wildtype astrocytes
Experimental: The [3-(4,5-dimethylthiazol-2-yl)-2,5-diphenyl]tetrazolium bromide (MTT) assay, which determines mitochondrial activity in living cells, is commonly used as a proliferation assay (Mosmann, J Immunol Methods 65:55-63, 1983). Living cells transform the tetrazolium ring into dark blue formazan crystals, which can be quantified by reading the optical density (O.D.); an increase in O.D. correlates with an increase in cell number over time. Wildtype and EphA4−/− astrocytes were plated on 96 well plates (Falcon) at 3×10^3 cells/well in DMEM supplemented with 10% FCS in the presence or absence of either LIF (1000 U/ml) or IFN-γ (100 U/ml). The MTT assay was performed at 2, 24, 48 and 72 hours after plating. MTT (0.25 mg/ml) was incubated with the cells at each timepoint for 2 hours at 37° C., the cells were then lysed with an equal volume of acidic isopropanol (0.04M HCL in absolute isopropanol) and the O.D. of the formazan product was measured at 550-650 nm.

EphA4 [1] = assay: EphA4 expression in cultured astrocytes (Western analysis); settings: 72 hrs, compared with untreated controls
Experimental: as §1, §2

EphA4 [2] = molecular target: T1, EphA4 (Mus musculus, UniProt Q03137); assay: EphA4 phosphorylation in cultured astrocytes (anti-phosphotyrosine immunoprecipitation, Western)
T1 construct: chamber slides (Falcon, USA) containing wildtype or EphA4−/− astrocyte monolayers; endogenous in cells; host or cells: primary purified astrocyte cultures from wildtype mice
Experimental: as §1, §2

T1 sequence (Q03137 20-986): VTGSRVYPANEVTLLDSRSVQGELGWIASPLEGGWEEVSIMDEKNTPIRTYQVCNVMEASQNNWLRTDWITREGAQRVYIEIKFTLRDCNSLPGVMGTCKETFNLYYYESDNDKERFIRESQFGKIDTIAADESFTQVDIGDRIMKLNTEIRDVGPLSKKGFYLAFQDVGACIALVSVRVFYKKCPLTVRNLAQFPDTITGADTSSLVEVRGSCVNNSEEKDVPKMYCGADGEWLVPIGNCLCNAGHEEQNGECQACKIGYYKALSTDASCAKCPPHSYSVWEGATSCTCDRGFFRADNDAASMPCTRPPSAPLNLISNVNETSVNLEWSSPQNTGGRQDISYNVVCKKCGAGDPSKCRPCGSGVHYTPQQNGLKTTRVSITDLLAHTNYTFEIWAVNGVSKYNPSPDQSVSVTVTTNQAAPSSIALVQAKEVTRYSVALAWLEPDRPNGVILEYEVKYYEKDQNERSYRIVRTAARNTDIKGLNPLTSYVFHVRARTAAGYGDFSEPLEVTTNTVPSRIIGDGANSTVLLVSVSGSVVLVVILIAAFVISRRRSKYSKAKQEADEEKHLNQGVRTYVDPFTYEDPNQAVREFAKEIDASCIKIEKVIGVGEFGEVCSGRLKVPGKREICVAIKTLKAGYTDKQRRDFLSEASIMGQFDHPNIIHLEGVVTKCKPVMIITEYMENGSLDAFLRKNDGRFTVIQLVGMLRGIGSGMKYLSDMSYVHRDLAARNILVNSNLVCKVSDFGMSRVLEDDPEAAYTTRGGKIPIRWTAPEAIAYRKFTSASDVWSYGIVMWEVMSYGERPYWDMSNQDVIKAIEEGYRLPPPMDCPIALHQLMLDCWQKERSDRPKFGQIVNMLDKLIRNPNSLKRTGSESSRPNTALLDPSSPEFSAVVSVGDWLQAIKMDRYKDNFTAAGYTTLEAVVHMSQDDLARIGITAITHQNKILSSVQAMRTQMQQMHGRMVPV

Molecule: IFNγ: Interferon-γ, inflammatory cytokine, inducer of astrocytic gliosis
- Rho activation (RhoGTP) in EphA4−/− astrocytes (Rho; EphA4−/− astrocytes in culture): not
- Rho activation (RhoGTP) in wildtype astrocytes (Rho; wildtype astrocytes in culture): activated Rho
- proliferation response of EphA4−/− astrocytes (astrocytes): markedly decreased
- proliferation of WT astrocytes (astrocytes): increased proliferation
- upregulation of EphA4 expression on astrocytes (EphA4 [1]): 56%

Molecule: LIF: Leukemia inhibitory factor, inflammatory cytokine
- upregulation of EphA4 phosphorylation (EphA4 [2]): 2 fold
- proliferation response of EphA4−/− astrocytes (astrocytes): markedly decreased
- proliferation of WT astrocytes (astrocytes): increased proliferation
- upregulation of EphA4 expression on astrocytes (EphA4 [1]): 69%

Molecule: TNFα
- upregulation of EphA4 expression on astrocytes (EphA4 [1]): no effect

B1: IFNγ: Interferon-γ, inflammatory cytokine, inducer of astrocytic gliosis (protein, UniProt P01579 24-161, looked up)
Interferon gamma: QDPYVKEAENLKKYFNAGHSDVADNGTLFLGILKNWKEESDRKIMQSQIVSFYFKLFKNFKDDQSIQKSVETIKEDMNVKFFNSNKKKRDDFEKLTNYSVTDLNVQRKAIHELIQVMAELSPAAKTGKRKRSQMLFRG
- upregulation of EphA4 phosphorylation (EphA4 [2]): 2 fold
